According to patent US20050085557A1, “Therapeutic procedures” (priority 2003, published 2005):

Assays:
LDL / apoB-100 = molecular target: T1, LDL / apoB-100 (Homo sapiens, UniProt P04114); test: Circular dichroism of LDL secondary structure; assay type: biochemical; details: LDL 100 μg/ml, compound 10 μM, PBS pH 7.4, 37° C., 48 h; for random coil of LDL after incubation (circular dichroism): normal LDL 27±2%; for a helical structure of LDL after incubation (circular dichroism): normal LDL ~40±2%
T1 construct: Circular dichroism (CD) spectra of LDL (100 μg/ml)
Description: Circular dichroism. […] Spectra were recorded in the peptidic range (200-260 nm). To increase the signal-to-noise ratio, multiple spectra (three) were averaged for each measurement.

J774.1 macrophages = test: Lipid-loading assay (foam cell formation); assay type: cell-based, murine; details: LDL 100 μg/mL with compound (20 μM), 72 h, unactivated J774.1 macrophages
Description: Macrophages were first grown for 24 h in RPMI-1640 containing 10% fetal bovine serum and then incubated for 72 h in the same media containing LDL (100 μg/mL). Cells were fixed with 4% formaldehyde and stained with hematoxylin and oil red O such that lipid granules stained a darker red color. Magnification×100.
J774.1 macrophages were grown for 24 h in RPMI-1640 containing 10% fetal bovine serum. […] Cells were fixed with 4% formaldehyde and stained with hematoxylin and oil red O such that lipid granules stained a darker red color. Magnification×100.
Lipid-loading assay (foam cellformation). J774.1 macrophages were incubated in ATCC-recommended media containing 10% fetal bovine serum under a controlled atmosphere of 5 or 7% CO2 at 37° C., in 8-well chamber slides. […] At termination, cells were washed twice with PBS (pH 7.4). The cells were then fixed with 6% (v/v) paraformaldehyde in PBS for 30 minutes, rinsed with propylene glycol for 2 minutes and lipids were stained with 5 mg/ml Oil Red O for 8 minutes. The cells were counterstained with Harris' hematoxylin for 45 seconds, and background staining was removed with […] followed by washing once in PBS and once in tap water. […] The number of lipid-laden cells was scored out of a total of at least 100 cells counted in a single field in each slide, and expressed as a percentage of total cells. […]

[1] = tested on: T-lymphocyte cell line (Jurkat E6.1); test: Cytotoxicity assay (LDH release), Jurkat E6.1; assay type: cell-based; details: FIG. 6B; in this concentration range (0-100 μM)
Description: Cytotoxicity assays. WI-L2 human B-lymphocyte line, HAAE-1 human abdominal aortic endothelial line, MH-S murine alveolar macrophage line, and J774A.1 murine tissue macrophage line were obtained from the ATCC. Human aortic endothelial cells (HAEC) and human vascular smooth muscle cells (VSMS) were obtained from Cambrex Bio Science. […] Cells were cultured in ATCC-recommended media with 10% fetal calf serum. Cells were incubated in a controlled atmosphere at 37° C., with 5 or 7% CO2. For lactate dehydrogenase (LDH) release assays, adherent cells were harvested either by addition of 0.05% trypsin/EDTA or by scraping. The cells obtained were seeded onto 96-well microtiter plates (25,000 cells/well) and allowed to recover for 24-48 h. Cells were washed gently and media replaced with fresh media containing 5% fetal calf serum. […] Cytotoxicity was then determined by measuring lactate dehydrogenase (LDH) release from cells in culture. […] 100% Cytotoxicity was defined as the maximum amount of LDH released by dead cells as shown by trypan blue exclusion, or the highest amount of LDH detected upon lysis of cells by 0.9% Triton X-100. The IC50 values were determined by comparison of the raw duplicate data for concentration versus cytotoxicity (%) to non-linear regression analysis (Hill plot) using Graphpad v3.0 software for Macintosh. […]

[2] = tested on: human B-lymphocyte (WI-L2) cell line; test: Cytotoxicity assay (LDH release), WI-L2; assay type: cell-based; details: FIG. 6A; in this concentration range (0-100 μM)
Description: Cytotoxicity assays. WI-L2 human B-lymphocyte line, HAAE-1 human abdominal aortic endothelial line, MH-S murine alveolar macrophage line, and J774A.1 murine tissue macrophage line were obtained from the ATCC. Human aortic endothelial cells (HAEC) and human vascular smooth muscle cells (VSMS) were obtained from Cambrex Bio Science. Jurkat E6-IT-lymphocytes were kindly provided by Dr. J. Kaye (The Scripps Research Institute). Cells were cultured in ATCC-recommended media with 10% fetal calf serum. Cells were incubated in a controlled atmosphere at 37° C., with 5 or 7% CO2. For lactate dehydrogenase (LDH) release assays, adherent cells were harvested either by addition of 0.05% trypsin/EDTA or by scraping. The cells obtained were seeded onto 96-well microtiter plates (25,000 cells/well) and allowed to recover for 24-48 h. […] Cytotoxicity was then determined by measuring lactate dehydrogenase (LDH) release from cells in culture. […] 100% Cytotoxicity was defined as the maximum amount of LDH released by dead cells as shown by trypan blue exclusion, or the highest amount of LDH detected upon lysis of cells by 0.9% Triton X-100. The IC50 values were determined by comparison of the raw duplicate data for concentration versus cytotoxicity (%) to non-linear regression analysis (Hill plot) using Graphpad v3.0 software for Macintosh. […]

[3] = Aldolization of ketoaldehyde 4a with amino acids (1H NMR); assay type: physicochemical; details: DMSO-d6 (800 μl) and D2O (80 μl) without amino acid
Description: Aldolization of ketoaldehyde 4a with amino acids. […] To this solution was added 1 equivalent of either: a) L-proline, […] b) glycine, c) L-lysine hydrochloride or d) L-lysine ethyl ester dihydrochloride. At time points the samples were analyzed by ^1H NMR.

[4] = Aldolization of secoketoaldehyde 4a with atherosclerotic artery and blood fractions (1H NMR); assay type: in vitro ADME, human; details: lyophilized PBS
Description: Aldolization of secoketoaldehyde 4a with atherosclerotic artery and blood fractions. […] To this solution was added either a) atherosclerotic artery (2.1 mg) that had been homogenized in PBS (1 ml) in a tissue homogenizer and then lyophilized to dryness, b) lyophilized human blood (1 ml), c) lyophilized human plasma (1 ml) or d) PBS lyophilized (1 ml). At time points samples were removed and analyzed by ^1H NMR vide supra.

T1 sequence (P04114 28-4563, species assumed): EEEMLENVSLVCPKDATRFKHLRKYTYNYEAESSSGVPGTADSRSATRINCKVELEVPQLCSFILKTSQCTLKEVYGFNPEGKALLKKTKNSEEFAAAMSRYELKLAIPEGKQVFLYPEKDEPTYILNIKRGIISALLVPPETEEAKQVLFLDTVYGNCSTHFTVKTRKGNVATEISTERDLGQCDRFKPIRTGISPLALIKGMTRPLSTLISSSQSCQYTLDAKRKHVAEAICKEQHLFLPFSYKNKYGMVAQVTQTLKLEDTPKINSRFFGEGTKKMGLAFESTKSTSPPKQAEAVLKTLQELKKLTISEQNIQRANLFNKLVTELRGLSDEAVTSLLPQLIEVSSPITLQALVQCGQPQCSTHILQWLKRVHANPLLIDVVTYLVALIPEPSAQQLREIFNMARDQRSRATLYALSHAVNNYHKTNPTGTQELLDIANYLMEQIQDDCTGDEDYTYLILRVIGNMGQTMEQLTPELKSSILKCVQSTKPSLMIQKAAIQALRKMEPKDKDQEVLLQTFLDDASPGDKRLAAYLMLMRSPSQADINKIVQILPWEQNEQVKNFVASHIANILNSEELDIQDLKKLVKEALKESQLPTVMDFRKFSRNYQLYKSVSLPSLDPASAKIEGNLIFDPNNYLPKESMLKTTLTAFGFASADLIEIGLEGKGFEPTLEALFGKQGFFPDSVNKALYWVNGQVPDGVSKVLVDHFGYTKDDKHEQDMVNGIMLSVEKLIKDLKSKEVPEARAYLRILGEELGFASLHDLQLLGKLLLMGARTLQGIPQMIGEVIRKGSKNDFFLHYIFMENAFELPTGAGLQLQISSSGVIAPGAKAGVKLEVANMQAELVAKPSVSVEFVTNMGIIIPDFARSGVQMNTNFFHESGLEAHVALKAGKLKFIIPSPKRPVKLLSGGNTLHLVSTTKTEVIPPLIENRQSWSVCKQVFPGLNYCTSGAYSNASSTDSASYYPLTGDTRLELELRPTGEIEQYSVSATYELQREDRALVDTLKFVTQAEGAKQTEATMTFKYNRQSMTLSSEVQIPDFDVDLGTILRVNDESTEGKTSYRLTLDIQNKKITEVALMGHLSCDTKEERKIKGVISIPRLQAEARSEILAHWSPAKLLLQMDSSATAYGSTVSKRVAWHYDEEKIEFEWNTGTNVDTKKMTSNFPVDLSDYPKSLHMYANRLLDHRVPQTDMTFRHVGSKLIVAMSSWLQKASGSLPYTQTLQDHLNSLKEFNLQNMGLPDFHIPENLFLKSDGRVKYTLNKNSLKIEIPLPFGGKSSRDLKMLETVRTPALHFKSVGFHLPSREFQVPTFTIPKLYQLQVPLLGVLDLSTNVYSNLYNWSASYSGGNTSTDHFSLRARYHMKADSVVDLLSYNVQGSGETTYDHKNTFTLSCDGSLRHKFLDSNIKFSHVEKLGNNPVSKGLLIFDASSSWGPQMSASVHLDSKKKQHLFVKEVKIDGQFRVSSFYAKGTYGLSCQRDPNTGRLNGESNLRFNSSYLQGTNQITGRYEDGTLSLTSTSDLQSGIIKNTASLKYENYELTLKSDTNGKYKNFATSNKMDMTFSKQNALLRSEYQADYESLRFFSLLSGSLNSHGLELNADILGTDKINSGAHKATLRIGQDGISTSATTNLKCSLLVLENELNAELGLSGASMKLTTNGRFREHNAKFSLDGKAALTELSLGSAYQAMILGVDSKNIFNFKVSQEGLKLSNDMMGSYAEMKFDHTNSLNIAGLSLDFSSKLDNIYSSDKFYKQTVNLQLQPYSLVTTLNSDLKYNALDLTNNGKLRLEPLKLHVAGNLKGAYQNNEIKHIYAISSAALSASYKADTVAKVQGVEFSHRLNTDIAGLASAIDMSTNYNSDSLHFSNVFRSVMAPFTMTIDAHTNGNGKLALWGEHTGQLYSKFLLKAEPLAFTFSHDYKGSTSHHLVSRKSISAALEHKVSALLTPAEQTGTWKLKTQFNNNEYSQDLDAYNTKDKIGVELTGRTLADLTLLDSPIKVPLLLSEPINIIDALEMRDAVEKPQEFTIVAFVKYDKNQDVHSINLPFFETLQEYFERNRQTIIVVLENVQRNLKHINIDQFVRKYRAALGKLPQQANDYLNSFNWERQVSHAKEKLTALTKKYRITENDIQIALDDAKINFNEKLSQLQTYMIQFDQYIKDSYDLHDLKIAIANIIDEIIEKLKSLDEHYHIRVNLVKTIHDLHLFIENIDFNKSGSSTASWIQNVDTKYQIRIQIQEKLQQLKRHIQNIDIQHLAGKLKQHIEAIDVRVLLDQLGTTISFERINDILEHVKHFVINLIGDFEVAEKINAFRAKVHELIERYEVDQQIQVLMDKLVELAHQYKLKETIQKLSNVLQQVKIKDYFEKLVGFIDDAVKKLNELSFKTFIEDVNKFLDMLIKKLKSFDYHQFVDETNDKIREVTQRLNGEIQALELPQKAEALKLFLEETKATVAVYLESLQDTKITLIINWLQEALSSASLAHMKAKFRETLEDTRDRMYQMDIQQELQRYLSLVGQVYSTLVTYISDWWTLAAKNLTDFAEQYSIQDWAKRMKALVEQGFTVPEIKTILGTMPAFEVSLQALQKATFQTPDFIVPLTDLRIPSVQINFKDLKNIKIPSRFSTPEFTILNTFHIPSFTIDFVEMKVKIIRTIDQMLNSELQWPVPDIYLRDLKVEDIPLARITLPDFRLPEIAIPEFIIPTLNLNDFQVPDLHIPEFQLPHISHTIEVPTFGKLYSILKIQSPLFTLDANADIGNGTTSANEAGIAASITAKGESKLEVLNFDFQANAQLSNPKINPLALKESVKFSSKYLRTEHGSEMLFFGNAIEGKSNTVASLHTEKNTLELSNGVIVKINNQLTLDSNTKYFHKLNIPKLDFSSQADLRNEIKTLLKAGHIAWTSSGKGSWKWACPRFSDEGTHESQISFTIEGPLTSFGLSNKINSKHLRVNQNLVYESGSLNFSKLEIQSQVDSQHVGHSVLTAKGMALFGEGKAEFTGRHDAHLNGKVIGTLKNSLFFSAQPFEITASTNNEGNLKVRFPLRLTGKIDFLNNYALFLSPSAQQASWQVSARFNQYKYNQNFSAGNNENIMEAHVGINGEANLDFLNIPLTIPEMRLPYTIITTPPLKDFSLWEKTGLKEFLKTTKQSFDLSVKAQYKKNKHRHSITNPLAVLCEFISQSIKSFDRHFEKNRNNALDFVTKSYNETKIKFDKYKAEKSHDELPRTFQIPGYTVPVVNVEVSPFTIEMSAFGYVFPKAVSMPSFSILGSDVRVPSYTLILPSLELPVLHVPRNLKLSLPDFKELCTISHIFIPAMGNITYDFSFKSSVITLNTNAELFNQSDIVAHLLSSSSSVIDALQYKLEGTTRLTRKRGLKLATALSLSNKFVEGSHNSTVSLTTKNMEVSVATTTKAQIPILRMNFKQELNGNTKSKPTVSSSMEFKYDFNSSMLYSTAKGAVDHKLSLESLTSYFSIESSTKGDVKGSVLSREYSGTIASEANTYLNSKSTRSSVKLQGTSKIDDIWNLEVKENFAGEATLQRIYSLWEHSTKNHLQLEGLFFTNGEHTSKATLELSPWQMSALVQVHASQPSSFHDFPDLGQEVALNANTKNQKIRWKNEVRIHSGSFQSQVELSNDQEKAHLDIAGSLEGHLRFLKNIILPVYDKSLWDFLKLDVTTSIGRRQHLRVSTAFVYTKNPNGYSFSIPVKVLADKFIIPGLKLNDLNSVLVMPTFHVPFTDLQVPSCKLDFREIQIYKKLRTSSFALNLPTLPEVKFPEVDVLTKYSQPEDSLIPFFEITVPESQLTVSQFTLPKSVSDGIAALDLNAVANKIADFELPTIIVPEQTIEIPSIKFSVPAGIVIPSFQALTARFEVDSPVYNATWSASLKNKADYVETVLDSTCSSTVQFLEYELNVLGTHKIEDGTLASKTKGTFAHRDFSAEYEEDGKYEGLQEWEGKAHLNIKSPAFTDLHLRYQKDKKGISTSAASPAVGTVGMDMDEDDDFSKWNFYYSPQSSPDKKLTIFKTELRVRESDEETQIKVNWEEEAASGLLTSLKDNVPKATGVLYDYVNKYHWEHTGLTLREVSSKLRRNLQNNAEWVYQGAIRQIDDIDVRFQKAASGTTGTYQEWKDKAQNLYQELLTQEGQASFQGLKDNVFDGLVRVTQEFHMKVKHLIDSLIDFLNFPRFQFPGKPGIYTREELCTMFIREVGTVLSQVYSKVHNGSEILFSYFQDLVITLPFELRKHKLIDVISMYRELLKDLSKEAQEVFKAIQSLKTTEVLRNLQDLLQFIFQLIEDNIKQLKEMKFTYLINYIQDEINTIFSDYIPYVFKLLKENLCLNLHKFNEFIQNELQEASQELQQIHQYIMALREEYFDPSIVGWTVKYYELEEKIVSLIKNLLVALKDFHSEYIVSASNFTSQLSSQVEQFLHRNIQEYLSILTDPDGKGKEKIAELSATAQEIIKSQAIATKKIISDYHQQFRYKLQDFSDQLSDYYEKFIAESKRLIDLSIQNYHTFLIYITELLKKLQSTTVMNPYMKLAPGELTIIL

Structure (SMILES)	random coil of LDL after incubation (circular dichroism) (LDL / apoB-100)	a helical structure of LDL after incubation (circular dichroism) (LDL / apoB-100)	lipid-loading of macrophages / foam cell formation (J774.1 macrophages)	cytotoxicity against T-cell (Jurkat) cell line [1]	cytotoxicity against B-cell (WI-L2) cell line [2]	aldolization of 4a (background) [3]	aldolization of 4a (background) [4]
CC(C)CCC[C@@H](C)[C@H]1CCC2C3C(CC[C@@]21C)[C@@]1(C)CC[C@H](O)C[C@@]1(O)[C@@H]3C=O (stereo partly drawn) [5a, 3β-Hydroxy-5β-hydroxy-B-norcholestane-6β-carboxaldehyde]	32±+4%	~20±2%	foam cells began to appear				
CC(C)CCC[C@@H](C)[C@H]1CC[C@H]2[C@@H]3CC=C4C[C@@H](O)CC[C@]4(C)[C@H]3CC[C@]12C [compound 3, cholesterol]				No cytotoxicity	No cytotoxicity		
CC(C)CCC[C@@H](C)[C@H]1CCC2C(CC=O)C([C@@]3(C)CC[C@H](O)CC3=O)CC[C@@]21C (stereo partly drawn) [4a, 3β-Hydroxy-5-oxo-5,6-secocholestan-6-al]	~39±2%	~23±5%	foam cells began to appear			no aldolization	no aldolization
